Test results: the Kinase Knowledgebase extract (Sharma et al. 2016)

Each molecule was assayed against EGFR (human) (UniProt P00533). Conditions: mda468.
EGFR (human), sequence (P00533 whole entry, looked up): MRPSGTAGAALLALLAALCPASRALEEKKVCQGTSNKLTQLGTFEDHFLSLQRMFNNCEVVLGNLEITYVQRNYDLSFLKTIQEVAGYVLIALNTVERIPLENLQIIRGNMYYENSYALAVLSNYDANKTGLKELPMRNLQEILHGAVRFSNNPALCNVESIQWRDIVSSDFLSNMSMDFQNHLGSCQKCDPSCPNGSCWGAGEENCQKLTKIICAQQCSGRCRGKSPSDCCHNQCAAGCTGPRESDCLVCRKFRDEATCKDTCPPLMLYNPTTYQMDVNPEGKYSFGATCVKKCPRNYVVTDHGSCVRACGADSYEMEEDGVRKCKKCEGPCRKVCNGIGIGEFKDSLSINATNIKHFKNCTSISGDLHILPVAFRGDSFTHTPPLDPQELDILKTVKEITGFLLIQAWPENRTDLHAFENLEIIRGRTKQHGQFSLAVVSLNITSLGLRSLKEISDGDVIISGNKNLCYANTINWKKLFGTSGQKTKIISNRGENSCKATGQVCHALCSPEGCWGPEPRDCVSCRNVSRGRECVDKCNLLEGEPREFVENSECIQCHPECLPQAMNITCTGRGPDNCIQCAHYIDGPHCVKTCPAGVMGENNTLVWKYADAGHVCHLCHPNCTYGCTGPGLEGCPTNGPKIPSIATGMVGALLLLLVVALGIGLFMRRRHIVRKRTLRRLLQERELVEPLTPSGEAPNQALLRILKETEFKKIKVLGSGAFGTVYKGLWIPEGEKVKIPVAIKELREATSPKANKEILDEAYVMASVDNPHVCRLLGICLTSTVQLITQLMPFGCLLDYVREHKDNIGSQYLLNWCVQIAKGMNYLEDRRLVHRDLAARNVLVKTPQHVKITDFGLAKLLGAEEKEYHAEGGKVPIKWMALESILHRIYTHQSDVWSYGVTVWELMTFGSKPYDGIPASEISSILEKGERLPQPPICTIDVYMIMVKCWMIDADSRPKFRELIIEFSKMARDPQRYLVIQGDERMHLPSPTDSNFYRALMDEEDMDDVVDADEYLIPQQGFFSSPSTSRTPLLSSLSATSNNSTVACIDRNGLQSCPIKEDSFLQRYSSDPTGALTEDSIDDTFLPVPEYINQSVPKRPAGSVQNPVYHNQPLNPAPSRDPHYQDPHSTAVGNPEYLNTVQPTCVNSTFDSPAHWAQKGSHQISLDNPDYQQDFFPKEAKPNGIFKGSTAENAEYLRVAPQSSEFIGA

| IC50 [nM] | SMILES |
| --- | --- |
| 3000 | CNc1cc2c(Nc3cccc(Br)c3)ncnc2cn1 |
| 12000 | CN(C)c1cc2c(Nc3cccc(Br)c3)ncnc2cn1 |

The molecules below were run against EGFR (human) (UniProt P00533). Conditions: a431.

| IC50 [nM] | SMILES |
| --- | --- |
| 124 | NNc1ncc2c(NCc3ccccc3)ncnc2n1 |
| > 1000 | c1ccc(CNc2ncnc3[nH]ccc23)cc1 |

Each molecule was assayed against EGFR (mice) (UniProt P00533). Conditions: swiss 3t3 fibroblast, dose or concentration not given here.
EGFR (mice), sequence (P00533 whole entry, looked up): as above

| SMILES | inhibition [%] |
| --- | --- |
| Nc1cc2ncnc(NCc3ccccc3)c2cn1 | 5 |

Each molecule was assayed against EGFR (human) (UniProt P00533). Conditions: sk-br-3.

| IC50 [nM] | SMILES |
| --- | --- |
| < 10 | COc1cc2c(Nc3cccc(Br)c3)ncnc2cn1 |
| < 10 | NNc1ncc2c(NCc3ccccc3)ncnc2n1 |
| 1500 | Nc1cc2ncnc(Nc3cccc([N+](=O)[O-])c3)c2cn1 |
| 800 | Nc1cc2ncnc(Nc3cccc(Br)c3)c2cn1 |
| 2660 | Nc1ccc2ncnc(Nc3cccc(Br)c3)c2n1 |
| 71 | CN(C)c1ccc2ncnc(Nc3cccc(Br)c3)c2n1 |
| 100 | CNc1ccc2ncnc(Nc3cccc(Br)c3)c2n1 |
| > 1000 | c1ccc(CNc2ncnc3[nH]ccc23)cc1 |
| < 10 | CNc1cc2c(Nc3cccc(Br)c3)ncnc2cn1 |
| 39 | CN(C)c1cc2c(Nc3cccc(Br)c3)ncnc2cn1 |
| > 10000 | Fc1ccc2ncnc(Nc3cccc(Br)c3)c2n1 |
